Assay results published in ChEMBL document CHEMBL4616673 (J Med Chem, 2020).
Values after ≈ are worked out from the molar mass of the structure shown.

Experiments:
NAMALVA = assay: Antiproliferative activity against human NAMALWA cells assessed as reduction in cell viability measured after 48 hrs by MTT assay; format: functional, cell-based; conditions: Homo sapiens, NAMALVA, 48 h
MCF7 = assay: Antiproliferative activity against human MCF7 cells assessed as reduction in cell viability measured after 48 hrs by MTT assay; format: functional, cell-based; conditions: Homo sapiens, MCF7, 48 h
Raji = assay: Antiproliferative activity against human Raji cells assessed as reduction in cell viability measured after 48 hrs by MTT assay; format: functional, cell-based; conditions: Homo sapiens, Raji, 48 h
A549 = assay: Antiproliferative activity against human A549 cells assessed as reduction in cell viability measured after 48 hrs by MTT assay; format: functional, cell-based; conditions: Homo sapiens, A549, 48 h
K562 = assay: Antiproliferative activity against human K562 cells assessed as reduction in cell viability measured after 48 hrs by MTT assay; format: functional, cell-based; conditions: Homo sapiens, K562, 48 h
A-375 = assay: Antiproliferative activity against human A375 cells assessed as reduction in cell viability measured after 48 hrs by MTT assay; format: functional, cell-based; conditions: Homo sapiens, A-375, 48 h
HeLa = assay: Antiproliferative activity against human HeLa cells assessed as reduction in cell viability measured after 48 hrs by MTT assay; format: functional, cell-based; conditions: Homo sapiens, HeLa, 48 h
[1] = target: Dihydroorotate dehydrogenase (quinone), mitochondrial (Homo sapiens, UniProt Q02127); assay: Inhibition of human DHODH using dihydroorotate as substrate and CoQ10 as co-substrate preincubated for 30 mins followed by substrate addition by DCIP coupled microplate reader assay
HCT-116 = assay: Antiproliferative activity against human HCT116 cells assessed as reduction in cell viability measured after 48 hrs by MTT assay; format: functional, cell-based; conditions: Homo sapiens, HCT-116, 48 h
[2] = Solubility of the compound in PBS; format: physicochemical
[3] = Competitive inhibition of Plasmodium falciparum DHODH

Dihydroorotate dehydrogenase (quinone), mitochondrial, sequence (Q02127 whole entry): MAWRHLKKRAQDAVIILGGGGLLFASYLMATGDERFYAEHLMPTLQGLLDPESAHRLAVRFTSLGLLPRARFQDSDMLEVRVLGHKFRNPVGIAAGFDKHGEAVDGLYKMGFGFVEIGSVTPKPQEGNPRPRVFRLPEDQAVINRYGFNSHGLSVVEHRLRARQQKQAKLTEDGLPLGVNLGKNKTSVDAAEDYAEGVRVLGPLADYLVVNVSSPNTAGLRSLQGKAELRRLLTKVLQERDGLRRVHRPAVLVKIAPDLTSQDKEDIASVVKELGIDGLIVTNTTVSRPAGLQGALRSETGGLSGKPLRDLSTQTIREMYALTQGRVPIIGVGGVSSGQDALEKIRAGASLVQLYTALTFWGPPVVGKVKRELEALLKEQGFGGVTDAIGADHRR

SMILES | IC50 (MCF7) [nM] | IC50 (Raji) [nM] | IC50 (A549) [nM] | IC50 (K562) [nM] | IC50 (A-375) [nM] | IC50 (HeLa) [nM] | IC50 [1] [nM] | IC50 (HCT-116) [nM] | solubility [2] [µg/mL] | IC50 (NAMALVA) [nM] | Ki [3] [nM]
COCc1cccc(-c2c(F)cc(-n3nnc4c3C(=O)c3ccccc3C4=O)cc2F)c1 | > 10000 | 1230 | > 10000 | > 10000 | 180 | > 10000 | 1.6 | 1130 | < 10 | > 10000 | 
CN(C)c1cccc(-c2c(F)cc(-n3nnc4c3C(=O)c3ccccc3C4=O)cc2F)c1 | > 10000 | 2150 | > 10000 | > 10000 | 20 | 2020 | 0.5 | 410 | < 10 | > 10000 | 
O=C1c2ccccc2C(=O)c2c1nnn2-c1ccc(-c2cncnc2)cc1 |  |  |  |  |  |  | > 1000 |  |  |  | 
N#Cc1cccc(-n2nnc3c2C(=O)c2ccccc2C3=O)c1 |  |  |  |  |  |  | > 1000 |  |  |  | 
Nc1ccccc1-c1ccc(-n2nnc3c2C(=O)c2ccccc2C3=O)cc1 | > 10000 | 3840 | > 10000 | 2160 | 1930 | > 10000 | 20 | 2300 |  | 5050 | 
O=C1c2ccccc2C(=O)c2c1nnn2-c1ccc(-c2cccc(O)c2)cc1 | > 10000 | 9040 | > 10000 | 7090 | > 10000 | > 10000 | 21 | > 10000 |  | > 10000 | 
CC(C)c1ccc(-c2c(F)cc(-n3nnc4c3C(=O)c3ccccc3C4=O)cc2F)cc1 |  |  |  |  |  |  | 76 |  |  |  | 
Nc1cccc(-c2ccc(-n3nnc4c3C(=O)c3ccccc3C4=O)cc2)c1 | > 10000 | 1360 | > 10000 | > 10000 | 250 | > 10000 | 3.1 | 880 | < 10 | > 10000 | 
COc1ccc2c(c1)C(=O)c1nnn(-c3cc(F)c(-c4ccccc4F)c(F)c3)c1C2=O |  |  |  |  |  |  | > 1000 |  |  |  | 
O=C1C(O)=C([C@H]2CC[C@H](c3ccc(Cl)cc3)CC2)C(=O)c2ccccc21 [ATOVAQUONE] |  |  |  |  |  |  |  |  |  |  | 27000
O=C1c2ccccc2C(=O)c2c1nnn2-c1cc(F)c(-c2cccc(F)c2)c(F)c1 | > 10000 | 1510 | > 10000 | > 10000 | 190 | > 10000 | 2.7 | 550 | < 10 | > 10000 | 
O=C1c2ccccc2C(=O)c2c1nnn2-c1ccccc1C(F)(F)F |  |  |  |  |  |  | > 1000 |  |  |  | 
O=C1c2ccccc2C(=O)c2c1nnn2-c1ccc(-c2cc(C(F)(F)F)cc(C(F)(F)F)c2)cc1 |  |  |  |  |  |  | > 1000 |  |  |  | 
O=C1c2ccccc2C(=O)c2c1nnn2-c1ccc2c(c1)OCO2 |  |  |  |  |  |  | > 1000 |  |  |  | 
COc1cc(-n2nnc3c2C(=O)c2ccccc2C3=O)ccc1-c1ccccc1 | > 10000 | 790 | > 10000 | 210 | 10 | > 10000 | 4.1 | 180 | 15.4 (≈ 40.4 µM) | > 10000 | 
Fc1ccccc1-c1c(F)cc(-n2cc(-c3ccccc3)nn2)cc1F |  |  |  |  |  |  | > 1000 |  |  |  | 

The next lines start with results.

IC50 (MCF7) [nM] | IC50 (Raji) [nM] | IC50 (A549) [nM] | IC50 (K562) [nM] | IC50 (A-375) [nM] | IC50 (HeLa) [nM] | IC50 [1] [nM] | IC50 (HCT-116) [nM] | solubility [2] [µg/mL] | SMILES | IC50 (NAMALVA) [nM] | Ki [3] [nM]
 |  |  |  |  |  | 230 |  |  | O=C1c2ccccc2C(=O)c2c1nnn2-c1ccc(-c2ccccc2O)cc1 |  | 
 |  |  |  |  |  | > 1000 |  |  | O=C1c2ccc(O)cc2C(=O)c2c1nnn2-c1cc(F)c(-c2ccccc2F)c(F)c1 |  | 
 |  |  |  |  |  | > 1000 |  |  | Cc1cc(-n2nnc3c2C(=O)c2ccccc2C3=O)ccc1F |  | 
 |  |  |  |  |  | > 1000 |  |  | O=C1c2ccccc2C(=O)c2c1nnn2-c1nc2ccccc2[nH]1 |  | 
 |  |  |  |  |  | > 1000 |  |  | O=C1c2ccccc2C(=O)c2c1nnn2-c1cccc(O)c1 |  | 
 |  |  |  |  |  | > 1000 |  |  | O=C(c1ccccc1)c1cn(-c2cc(F)c(-c3ccccc3F)c(F)c2)nn1 |  | 
> 10000 | > 10000 | > 10000 | > 10000 | 30 | > 10000 | 1.2 | 150 | 17.6 (≈ 40.4 µM) | O=C1c2ccccc2C(=O)c2c1nnn2-c1cc(F)c(-c2cccc(CO)c2F)c(F)c1 | > 10000 | 
 |  |  |  |  |  | > 1000 |  |  | COc1ccccc1-n1nnc2c1C(=O)c1ccccc1C2=O |  | 
 |  |  |  |  |  | > 1000 |  |  | O=C1c2ccccc2C(=O)c2c1nnn2-c1ccc2ccccc2c1 |  | 
 |  |  |  |  |  | > 1000 |  |  | COc1cc(-c2ccc(-n3nnc4c3C(=O)c3ccccc3C4=O)cc2)cc(OC)c1OC |  | 
> 10000 | > 10000 | > 10000 | > 10000 | 1580 | > 10000 | 6.9 | 2250 |  | O=C1c2ccccc2C(=O)c2c1nnn2-c1cc(F)c(-c2ccc(F)cc2)c(F)c1 | > 10000 | 
 |  |  |  |  |  | > 1000 |  |  | CC(C)c1ccc(-c2cc(F)c(-n3nnc4c3C(=O)c3ccccc3C4=O)c(F)c2)cc1 |  | 
> 10000 | > 10000 | > 10000 | 240 | 1900 | > 10000 | 25 | > 10000 |  | Nc1ccc(-c2ccc(-n3nnc4c3C(=O)c3ccccc3C4=O)cc2)cc1 | > 10000 | 
